Tests used:
[1] = Twenty-eight day toxicology study in mice; assay type: in vivo; settings: 28 days, highest dose 500 mg/kg/day
Experimental: (§1) Twenty-eight day toxicology studies were performed in both mice and dogs with increasing concentration to achieve toxicity. The following are the results of those studies.

[2] = Placebo-controlled ascending single-dose study in healthy subjects (CAT001); assay type: in vivo, human; settings: for Cmax / half-life / AUC / Tmax / AUC(0-t): human, in vivo, oral; for AUC(0-t): read-out: AUC (0-24)
Experimental: FIG. 21. […] Subjects were administered from 1 mg to 800 mg of VGX1027.
A placebo-controlled, ascending single-dose study was performed to evaluate the safety and pharmacokinetics of VGX-1027 in healthy human subjects. Study was performed upon 7 groups of subjects: group 1: 1 mg of VGX-1027 after fasting; group 2: 10 mg of VGX-1027 after fasting; group 3: 100 mg of VGX-1027 after fasting; group 4: 200 mg of VGX-1027 after fasting; group 5: 400 mg of VGX-1027 after fasting; group 6: 800 mg of VGX-1027 after fasting; and group 7: 100 mg of VGX-1027 after fasting, and after fed.

[3] = Plasma pharmacokinetics after intraperitoneal administration; assay type: in vivo; settings: mouse, ip, mice, i.p. 20 mg/kg
Experimental: To determine the pharmacokinetic properties of VGX-1027, drug concentrations were analyzed in the plasma of mice. The drug was measured post intraperitoneum administration at 20 mg/kg […] in 500 mM Na2HPO4, which is a therapeutically active concentration. […] Based on the linear part of the pharmacokinetic profile, the t1/2 of VGX-1027 is approximately 90 minutes.

[4] = system: 30 primary molecular targets; experiment: Radioligand binding assay (MDS Pharma HitProfiling Screen); settings: 30 targets, concentrations up to 10 μM; significant = ≧50% inhibition or stimulation
Experimental: VGX-1027 was negative in a radioligand binding assay (MDS Pharma HitProfiling Screen) that tested 30 primary molecular targets at concentrations up to 10 μM. No significant response (≧50% inhibition or stimulation for Biochemical assays) were noted.

[5] = Twenty-eight day toxicology study in dogs; assay type: in vivo; settings: 28 days, highest dose 100 mg/kg/day
Experimental: as §1

LPS-induced lethality = experiment: LPS-induced lethality; assay type: in vivo, mice
Experimental: VGX-1027 was administered intraperitoneally (A) or orally (p.o.) (B), and its effect on cumulative rate of lethality induced by LPS was evaluated. Data from 2 to 3 independent experiments are shown. Statistical analysis was performed by logrank (Mantel-Cox). *p<0.05 was taken as significant. Each group is compared to the vehicle-treated group.
As expected, most of the control mice either untreated or that received the vehicle of VGX-1027 succumbed to LPS-challenge within 3 days. […] In contrast, the treatment with VGX-1027 given either orally or intraperitoneally administration protect the mice from the lethal effects of LPS in a dose-dependent fashion. When given orally, VGX-1027 was effective at the dose of […] and […] both at 1.5 and 3 mg/mouse.
Lipopolysaccharide (LPS) is the most studied of all TLR agonists because it induces both local and systemic inflammation, and responses to LPS mimic many of the features of tissue injury observed during infections with Gram-negative bacteria. Injection of LPS into mice triggers production of inflammatory cytokines and symptoms that are indistinguishable from those of septic shock.

[6] = Placebo-controlled ascending multiple-dose study in healthy subjects; assay type: in vivo, human; settings: for Tmax / Cmax / AUC(0-t) / AUC: human, in vivo, oral; for Cmax / AUC(0-t) / AUC: Geo Mean; for AUC(0-t): read-out: AUC (0-24); for AUC: read-out: AUC (AUC to 12 hours)
Experimental: A placebo-controlled, ascending multiple-dose study was also performed to evaluate the safety and pharmacokinetics of VGX-1027 in healthy human subjects. The primary outcome to be measure was the safety as determined by vital signs, physical examinations, ECGs, clinical laboratory evaluations, and adverse event reporting. The secondary outcome measured was the pharmacokinetics on day 1 and at steady state-on day 5. Study was performed upon 4 groups of subjects: group 1: 40 mg of VGX-1027 QD; group 2: 100 mg of VGX-1027 QD; group 3: 200 mg of VGX-1027 QD; group 4: 200 mg of VGX-1027 BID. The pharmacokinetics is provided in Table 7, below, along with data from the single dose study: […]

[7] = 1 mg, single dose 1 mg, fasted, geometric mean
[8] = 10 mg, single dose 10 mg, fasted, geometric mean
[9] = 100 mg, Fasted vs Fed: 100 mg fasted, geometric mean
[10] = 100 mg, Fasted vs Fed: 100 mg fed, geometric mean
[11] = 100 mg, single dose 100 mg, fasted, geometric mean
[12] = 200 mg, single dose 200 mg, fasted, geometric mean
[13] = 400 mg, single dose 400 mg, fasted, geometric mean
[14] = 800 mg, single dose 800 mg, fasted, geometric mean
[15] = 100 mg, Multiple Dose (Day 1) 100 mg
[16] = 100 mg, Multiple Dose (Day 5) 100 mg
[17] = 200 mg, 200 mg BID, first dose, Day 1
[18] = 200 mg, 200 mg BID, first dose, Day 5
[19] = 200 mg, Multiple Dose (Day 1) 200 mg
[20] = 200 mg, Multiple Dose (Day 5) 200 mg

Question: Which results are given for `O=C(O)CC1CC(c2ccccc2)=NO1` (centres unmarked) [VGX-1027, 3-phenyl-4,5-dihydro-5-isoxazoleacetic acid]?
Answer: toxicology findings [1]: notable changes found in kidneys, liver, spleen, testis, epidydimus and bladder; Grade 3 or 4 AEs ([2]; human studies): No Grade 3 or 4 AEs were reported; SAEs ([2]; human studies): no SAEs were reported; Cmax [2, 7]: 50 ng/mL; half-life [2, 7]: 7.2 h; AUC ([2]; 1 mg, single dose 1 mg, fasted, geometric mean, read-out: AUC): 460 ng·h/mL; Tmax ([2]; 1 mg, single dose 1 mg, fasted, median): 1 h; Cmax [2, 8]: 1100 ng/mL; half-life [2, 8]: 4.9 h; AUC ([2]; 10 mg, single dose 10 mg, fasted, geometric mean, read-out: AUC): 4430 ng·h/mL; Tmax ([2]; 10 mg, single dose 10 mg, fasted, median): 0.5 h; Cmax [2, 9]: 6500 ng/mL; half-life [2, 9]: 5.9 h; AUC ([2]; 100 mg, Fasted vs Fed: 100 mg fasted, geometric mean, read-out: AUC): 37800 ng·h/mL; Tmax ([2]; 100 mg, Fasted vs Fed: 100 mg fasted, median): 1.25 h; Cmax [2, 10]: 4600 ng/mL; half-life [2, 10]: 6.3 h; AUC ([2]; 100 mg, Fasted vs Fed: 100 mg fed, geometric mean, read-out: AUC): 55700 ng·h/mL; Tmax ([2]; 100 mg, Fasted vs Fed: 100 mg fed, median): 3.5 h; Tmax ([2]; 100 mg, Single Dose (CAT001) 100 mg): 1.8 h; Cmax ([2]; 100 mg, Single Dose (CAT001) 100 mg, Geo Mean): 9070 ng/mL; Cmax [2, 11]: 9100 ng/mL; half-life [2, 11]: 8.8 h; AUC ([2]; 100 mg, single dose 100 mg, fasted, geometric mean, read-out: AUC): 74600 ng·h/mL; Tmax ([2]; 100 mg, single dose 100 mg, fasted, median): 1.75 h; Tmax ([2]; 200 mg, Single Dose (CAT001) 200 mg): 1.5 h; Cmax ([2]; 200 mg, Single Dose (CAT001) 200 mg, Geo Mean): 15700 ng/mL; AUC ([2]; 200 mg, Single Dose (CAT001) 200 mg, Geo Mean, read-out: AUC (AUC to 12 hours)): 78500 ng·h/mL; Cmax [2, 12]: 15700 ng/mL; half-life [2, 12]: 7.7 h; AUC ([2]; 200 mg, single dose 200 mg, fasted, geometric mean, read-out: AUC): 111000 ng·h/mL; Tmax ([2]; 200 mg, single dose 200 mg, fasted, median): 1.5 h; Cmax [2, 13]: 23800 ng/mL; half-life [2, 13]: 6.7 h; AUC ([2]; 400 mg, single dose 400 mg, fasted, geometric mean, read-out: AUC): 155000 ng·h/mL; Tmax ([2]; 400 mg, single dose 400 mg, fasted, median): 1.25 h; Cmax [2, 14]: 43200 ng/mL; half-life [2, 14]: 7.9 h; AUC ([2]; 800 mg, single dose 800 mg, fasted, geometric mean, read-out: AUC): 330000 ng·h/mL; Tmax ([2]; 800 mg, single dose 800 mg, fasted, median): 2 h; AUC(0-t) ([2]; Single Dose (CAT001) 100 mg, Geo Mean): 66800 ng·h/mL; AUC(0-t) ([2]; Single Dose (CAT001) 200 mg, Geo Mean): 98400 ng·h/mL; tolerability in humans ([2]; oral pill): safe and well-tolerated; dosing toxicities ([2]; up to 800 mg QD single dose): No dosing toxicities were observed; Tmax ([3]; 20 mg/kg): 2 h; concentration at 6 h ([3]; after 6 hours post injection, read-out: plasma drug concentration): < 10000 ng/mL; concentration at 30 min ([3]; by 30 minutes post injection, read-out: plasma drug concentration): > 80000 ng/mL; half-life ([3]; linear part of the profile): ~1.5 h; Cmax ([3]; read-out: peak plasma concentration (Cmax)): 130000 ng/mL; radioligand binding result [4]: negative; early deaths [5]: 3; protection from LPS lethality (LPS-induced lethality; i.p., between 0.25 and 0.5 mg/mouse): dose-dependent protection; survival (LPS-induced lethality; lethal dose of LPS (1 mg/mice), i.p. or oral): increased the survival; protection from LPS lethality (LPS-induced lethality; oral, 2.5 mg/mouse): effective; protection from LPS lethality (LPS-induced lethality; oral, 1.5 and 3 mg/mouse): dosed out; LPS-induced lethality (LPS-induced lethality; prophylactic regime (−24 and −1 hour prior to LPS), oral and i.p.): significantly reducing; LPS-induced lethality (LPS-induced lethality; therapeutic administration): powerfully counteracts; urine drug levels ([6]; CAT002 urine PK analysis): high drug levels in urine; Tmax [6, 15]: 1 h; Cmax [6, 15]: 7570 ng/mL; AUC(0-t) [6, 15]: 31300 ng·h/mL; Tmax [6, 16]: 1.5 h; Cmax [6, 16]: 6760 ng/mL; AUC(0-t) [6, 16]: 23200 ng·h/mL; Tmax [6, 17]: 1 h; Cmax [6, 17]: 13100 ng/mL; AUC [6, 17]: 58200 ng·h/mL; Tmax [6, 18]: 1.5 h; Cmax [6, 18]: 16800 ng/mL; AUC [6, 18]: 70400 ng·h/mL; Tmax [6, 19]: 1.3 h; Cmax [6, 19]: 15700 ng/mL; AUC(0-t) [6, 19]: 78100 ng·h/mL; Tmax [6, 20]: 2 h; Cmax [6, 20]: 14100 ng/mL; AUC(0-t) [6, 20]: 65700 ng·h/mL; dosing toxicities ([6]; up to 200 mg bid for 5 days): No dosing toxicities were observed
